The target of the experiment is T1, AR (Homo sapiens, UniProt P10275, T878A).
T1 sequence (P10275 1-920 T878A): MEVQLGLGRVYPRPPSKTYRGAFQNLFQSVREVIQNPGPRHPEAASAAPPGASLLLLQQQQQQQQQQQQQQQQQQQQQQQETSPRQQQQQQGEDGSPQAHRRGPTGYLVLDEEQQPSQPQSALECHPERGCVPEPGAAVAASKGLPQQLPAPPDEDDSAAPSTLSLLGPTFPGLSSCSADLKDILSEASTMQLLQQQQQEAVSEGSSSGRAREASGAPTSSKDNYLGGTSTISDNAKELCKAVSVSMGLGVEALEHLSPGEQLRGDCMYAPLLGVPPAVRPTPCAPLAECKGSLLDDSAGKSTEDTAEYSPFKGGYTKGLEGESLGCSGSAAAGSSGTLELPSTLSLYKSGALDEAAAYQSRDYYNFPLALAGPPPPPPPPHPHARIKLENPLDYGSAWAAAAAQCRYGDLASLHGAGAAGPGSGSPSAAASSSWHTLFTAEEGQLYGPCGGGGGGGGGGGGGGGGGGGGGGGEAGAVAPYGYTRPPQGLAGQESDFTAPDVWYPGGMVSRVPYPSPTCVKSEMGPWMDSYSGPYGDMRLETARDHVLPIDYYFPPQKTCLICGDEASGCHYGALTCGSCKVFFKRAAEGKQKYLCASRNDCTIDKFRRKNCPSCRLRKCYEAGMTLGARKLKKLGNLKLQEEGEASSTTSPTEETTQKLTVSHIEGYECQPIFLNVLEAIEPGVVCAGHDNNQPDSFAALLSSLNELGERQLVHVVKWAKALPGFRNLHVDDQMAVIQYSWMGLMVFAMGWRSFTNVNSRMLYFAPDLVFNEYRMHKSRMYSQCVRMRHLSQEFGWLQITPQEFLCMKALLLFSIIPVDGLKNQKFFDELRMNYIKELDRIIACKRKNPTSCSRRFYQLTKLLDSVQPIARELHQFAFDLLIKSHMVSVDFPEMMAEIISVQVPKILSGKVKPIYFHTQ
Put plainly: Effects of compounds on AR expression in LNCaP cells (ELISA, DC50). The experiment is classed as cell-based. Also on record: Measurement of the Effects of Drugs on the Expression of AR in Cells by ELISA Method; endogenous in cells; host or cells: LNCaP. To be noted: 24 hours of drug treatment, AR by ELISA. Put shortly:
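LNCaP cells at about 15,000/well were treated for 24 h with compound at 0.0001–2 μmol/L final. AR in cell lysates was measured by ELISA (OD450). Inhibition was relative to DMSO control after blank subtraction, and DC50 was calculated from it.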
(In general: ELISA stands for enzyme-linked immunosorbent assay.)

In turn, `CC1(C)C(=O)N(c2ccc(C#N)c(C(F)(F)F)c2F)C(=S)N1c1ccc(C2CC2C(=O)NCCCNC(=O)COc2cccc3c2C(=O)N(C2CCC(=O)NC2=O)C3=O)nc1` (centres unmarked) [Compound A25] gave a DC50 greater than 2000 nM.

In turn, `Cc1ncsc1-c1ccc([C@H](C)NC(=O)[C@@H]2C[C@@H](O)CN2C(=O)[C@@H](NC(=O)COCCCCOc2ccc(-c3ccc(N4C(=S)N(c5ccc(C#N)c(C(F)(F)F)c5F)C(=O)C4(C)C)cn3)cc2C(F)(F)F)C(C)(C)C)cc1` [Compound A113] displayed a DC50 of 193 nM.

`Cc1ncsc1-c1ccc(CNC(=O)[C@@H]2C[C@@H](O)CN2C(=O)[C@@H](NC(=O)[C@H]2CC[C@H](CNC(=O)c3ccc(-c4ccc(N5C(=S)N(c6ccc(C#N)c(C(F)(F)F)c6F)C(=O)C5(C)C)cn4)cc3)CC2)C(C)(C)C)cc1` [Compound A59] came in with a DC50 of 48.6 nM.

The molecule `Cc1ncsc1-c1ccc(CNC(=O)[C@@H]2C[C@@H](O)CN2C(=O)[C@@H](NC(=O)c2ccc(CNC(=O)c3ccc(-c4ccc(N5C(=S)N(c6ccc(C#N)c(C(F)(F)F)c6F)C(=O)C5(C)C)cn4)cc3)cc2)C(C)(C)C)cc1` [Compound A60] showed a DC50 of 82.9 nM.

`Cc1ncsc1-c1ccc(CNC(=O)[C@@H]2C[C@@H](O)CN2C(=O)[C@@H](NC(=O)COCCOCCCCOc2ccc(N3C(=S)N(c4ccc(C#N)c(C(F)(F)F)c4F)C(=O)C3(C)C)cn2)C(C)(C)C)cc1` [Compound A254] returned a DC50 of 52.5 nM.

Molecule `Cc1ncsc1-c1ccc(CNC(=O)[C@@H]2C[C@@H](O)CN2C(=O)[C@@H](NC(=O)CCCn2cc(COc3ccc(-c4ccc(N5C(=S)N(c6ccc(C#N)c(C(F)(F)F)c6F)C(=O)C5(C)C)cn4)cc3)nn2)C(C)(C)C)cc1` [Compound A81] gave a DC50 of 63.3 nM.

`Cc1ncsc1-c1ccc(CNC(=O)[C@@H]2C[C@@H](O)CN2C(=O)[C@@H](NC(=O)c2ccc(C(F)(F)C(=O)Nc3ccc(-c4ccc(N5C(=S)N(c6ccc(C#N)c(C(F)(F)F)c6F)C(=O)C5(C)C)cn4)cc3)cc2)C(C)(C)C)cc1` [Compound A241] registered a DC50 of 807 nM.

Regarding `COc1c(C#N)ccc(N2C(=O)C(C)(C)N(c3cnc(-c4ccc(OCCNC(=O)COc5ccc6c(c5)C(=O)N(C5CCC(=O)NC5=O)C6=O)c(F)c4)c(F)c3)C2=S)c1F` (centres unmarked) [Compound A197], the DC50 turned out to be 435 nM.

The molecule `Cc1ncsc1-c1ccc(CNC(=O)[C@@H]2C[C@@H](O)CN2C(=O)[C@@H](NC(=O)CCN2CCC(Oc3ccc(-c4ncc(N5C(=S)N(c6ccc(C#N)c(C(F)(F)F)c6F)C(=O)C5(C)C)cc4F)cc3F)CC2)C(C)(C)C)cc1` [Compound A104] showed a DC50 of 241 nM.

For `Cc1ncsc1-c1ccc(CNC(=O)[C@@H]2C[C@@H](O)CN2C(=O)[C@@H](NC(=O)[C@H]2CC[C@H](CNC(=O)CCCc3ccc(N4C(=S)N(c5ccc(C#N)c(C(F)(F)F)c5F)C(=O)C4(C)C)cn3)CC2)C(C)(C)C)cc1` [Compound A140], the DC50 worked out at 1500 nM.

Molecule `CC(C)(C)[C@H](NC(=O)COCCCCOc1ccc(-c2ccc(N3C(=S)N(c4ccc(C#N)c(C(F)(F)F)c4F)C(=O)C3(C)C)cn2)cc1)C(=O)N1C[C@H](O)C[C@H]1c1nc(-c2cncs2)c[nH]1` [Compound A203] displayed a DC50 of 71.9 nM.

The molecule `Cc1ncsc1-c1ccc(CNC(=O)[C@@H]2C[C@@H](O)CN2C(=O)[C@@H](NC(=O)COCCCOCCCCCOc2ccc(N3C(=S)N(c4ccc(C#N)c(C(F)(F)F)c4F)C(=O)C3(C)C)cn2)C(C)(C)C)cc1` [Compound A247] yielded a DC50 of 75.5 nM.

As to `CC(=O)O[C@@H]1C[C@@H](C(=O)NCc2ccc(-c3scnc3C)cc2)N(C(=O)[C@@H](NC(=O)COCCCCOc2c(F)cc(-c3ncc(N4C(=S)N(c5ccc(C#N)c(C(F)(F)F)c5F)C(=O)C4(C)C)cc3F)cc2F)C(C)(C)C)C1` [Compound A152], the DC50 worked out at 167 nM.

`COc1c(C#N)ccc(N2C(=O)C(C)(C)N(c3ccc(-c4ccc(OCCCCOCC(=O)N[C@H](C(=O)N5C[C@H](O)C[C@H]5C(=O)NCc5ccc(-c6scnc6C)cc5)C(C)(C)C)cc4)nc3)C2=S)c1F` [Compound A185]: the DC50 is 49.8 nM.

Molecule `Cc1ncsc1-c1ccc(CNC(=O)[C@@H]2C[C@@H](O)CN2C(=O)[C@@H](NC(=O)COCCCCN2CC=C(c3ccc(N4C(=S)N(c5ccc(C#N)c(C(F)(F)F)c5F)C(=O)C4(C)C)cn3)CC2)C(C)(C)C)cc1` [Compound A135] had a DC50 of 1540 nM.

`CC1(C)C(=O)N(c2ccc(C#N)c(C(F)(F)F)c2F)C(=S)N1c1ccc(C2CC2C(=O)NCCCCNC(=O)COc2cccc3c2C(=O)N(C2CCC(=O)NC2=O)C3=O)nc1` (centres unmarked) [Compound A26]: the DC50 was greater than 2000 nM.

Consider `COc1c(C#N)ccc(N2C(=O)C(C)(C)N(c3cnc(-c4ccc(OCCCCOCC(=O)N[C@H](C(=O)N5C[C@H](O)C[C@H]5C(=O)NCc5ccc(-c6scnc6C)cc5)C(C)(C)C)cc4C(F)(F)F)c(F)c3)C2=S)c1F` [Compound A196], for which the DC50 was 39 nM.

With `COc1c(C#N)ccc(N2C(=O)C(C)(C)N(c3cnc(-c4ccc(OCCCCOCC(=O)N[C@H](C(=O)N5C[C@H](O)C[C@H]5C(=O)NCc5ccc(-c6scnc6C)cc5)C(C)(C)C)c(F)c4)c(F)c3)C2=S)c1F` [Compound A215], the DC50 came out at 83.1 nM.

In the case of `Cc1ncsc1-c1ccc(CNC(=O)[C@@H]2C[C@@H](O)CN2C(=O)[C@@H](NC(=O)COCCCCN2CCC(c3ccc(N4C(=S)N(c5ccc(C#N)c(C(F)(F)F)c5F)C(=O)C4(C)C)cn3)CC2)C(C)(C)C)cc1` [Compound A141], the DC50 was greater than 2000 nM.

For `CC1(C)C(=O)N(c2ccc(C#N)c(C(F)(F)F)c2F)C(=S)N1c1ccc(CCCC(=O)NCCNC(=O)COc2cccc3c2C(=O)N(C2CCC(=O)NC2=O)C3=O)nc1` (centres unmarked) [Compound A6], the DC50 was greater than 2000 nM.

Take `CC(C)(C)[C@H](NC(=O)COCCCCOc1ccc(-c2ccc(N3C(=S)N(c4ccc(C#N)c(C(F)(F)F)c4F)C(=O)C3(C)C)cn2)cc1)C(=O)N1C[C@H](O)C[C@H]1c1nc(-c2cncnc2)c[nH]1` [Compound A228]: the DC50 is 107 nM.

`Cc1ncsc1-c1ccc(CNC(=O)[C@@H]2C[C@@H](O)CN2C(=O)[C@@H](NC(=O)COCC(F)C(F)COc2ccc(-c3ncc(N4C(=S)N(c5ccc(C#N)c(C(F)(F)F)c5F)C(=O)C4(C)C)cc3F)c(C(F)(F)F)c2)C(C)(C)C)cc1` (some centres unmarked) [Compound A154]: the DC50 was 37.6 nM.

In the case of `Cc1ncsc1-c1ccc(CNC(=O)[C@@H]2C[C@@H](O)CN2C(=O)[C@@H](NC(=O)COCCCCn2cc(-c3ccc(N4C(=S)N(c5ccc(C#N)c(C(F)(F)F)c5F)C(=O)C4(C)C)cn3)ccc2=O)C(C)(C)C)cc1` [Compound A98], the DC50 was found to be 281 nM.

Turning to `CC1(C)C(=O)N(c2ccc(C#N)c(C(F)(F)F)c2F)C(=S)N1c1cnc(-c2ccc(OCCNC(=O)COc3ccc4c(c3)C(=O)N(C3CCC(=O)NC3=O)C4=O)c(F)c2)c(F)c1` (centres unmarked) [Compound A40], the DC50 came out at 29.8 nM.

`Cc1ncsc1-c1ccc(CNC(=O)[C@@H]2C[C@@H](O)CN2C(=O)[C@@H](NC(=O)COCCOc2c(F)cc(-c3ncc(N4C(=S)N(c5ccc(C#N)c(C(F)(F)F)c5F)C(=O)C4(C)C)cc3F)cc2F)C(C)(C)C)cc1` [Compound A87] gave a DC50 of 54.6 nM.

Molecule `Cc1ncsc1-c1ccc(CNC(=O)[C@@H]2C[C@@H](O)CN2C(=O)[C@@H](NC(=O)Cc2ccc(C(=O)Nc3ccc(-c4ccc(N5C(=S)N(c6ccc(C#N)c(C(F)(F)F)c6F)C(=O)C5(C)C)cn4)cc3)cc2)C(C)(C)C)cc1` [Compound A240] showed a DC50 of 264 nM.
